# Values of other authors, collected in US8821944B1, “Polymorph compositions, methods of making, and uses thereof” (Edge Therapeutics, Inc., priority 2013, dated 2014).
# Assays:
# [1] = at +25° C. and +37° C.
# [2] = at +25° C. and +37° C.; remark: listed apart in the source
smiles,measurement,setting,value
COCCOC(=O)C1=C(C)NC(C)=C(C(=O)OC(C)C)C1c1cccc([N+](=O)[O-])c1 (centres unmarked) [Form II],solubility compared to Form I,[1],lower solubility
same,stability compared to Form I,[2],higher stability
